These results are taken from US7763617B2, “Pyrazolopyridine-4-yl pyridazinone derivatives and addition salts thereof, and PDE inhibitors comprising the same derivatives or salts as active ingredient” (Kyorin Pharmaceutical Co., Ltd., priority 2005, dated 2010).

Where only a bound is given, the exact number is not on record here.

For orientation: inhibition in vivo means the drop in the measured response relative to a control, in per cent. The low end stands for little suppression, the high end for strong suppression.

The target in assay [1] is T1, PDE3A catalytic domain (PDE3Acat) (Homo sapiens, UniProt Q14432).
T1 construct: cDNA fragments of PDE3A catalytic domain (indicated as “cat,” hereinafter); made in house; host or cells: Sf9 insect cells (baculovirus, Bac-to-Bac)
Briefly: Inhibition of phosphodiesterase activity, [3H]-cAMP hydrolysis, recombinant PDE3Acat. Format: biochemical. As to conditions: human recombinant PDE3Acat, cAMP 2 μmol/L; read-out: IC50(μmol/L) PDE3. How it is done:
(§1) RT-PCR was performed to isolate cDNA fragments of PDE3A catalytic domain (indicated as “cat,” hereinafter), PDE4Bcat, PDE5Acat and PDE10A1 from human RNA. Using Gateway system (Invitrogen) and Bac-to-Bac (registered trademark) Baculovirus Expression system (Invitrogen), the isolated cDNA fragments were transfected into Sf9 insect cells for expression of the PDE proteins. The recombinant PDE3Acat, PDE4Bcat, PDE5Acat and PDE10A1 proteins were isolated from culture supernatant or cell extracts of Sf9 cells expressed high levels of these proteins by ion-exchange chromatography and used for the following experiments.
(§2) 4 mmol/L solution of each test compound was serially diluted 4-fold with 15% DMSO solution to prepare the solutions with concentrations of 15 nmol/L to 4 mmol/L (final concentrations=1.5 nmol/L-400 μmol/L). 10 μL of each test compound solution was added to each well of 96 plate with 10 μL of [^3H]-cAMP or [^3H]-cGMP solution, diluted with a buffer (40 mmol/L Tris-HCl (pH 7.4), 10 mmol/L MgCl2) to the concentration shown in Table 20 and 40 μL of each of the human recombinant PDE proteins in units shown in Table 20. The plate was incubated at 30° C. for 20 min, and then at 65° C. for 2 min. Subsequently, 25 μL of 1 mg/mL 5′-nucleotidase (Crotalus atrox venom, Sigma) was added to each well and the plate was incubated at 30° C. for 10 min. 200 μL of Dowex solution (300 mg/mL Dowex 1×8-400 (Sigma Aldrich), 33% ethanol) was then added to each well and the plate was shaken at 4° C. for 20 min. Subsequently, 200 μL of MicroScint 20 (Packard) was added to each well and the radioactivity of each sample was measured by a scintillation counter (Topcount, Packard) IC50 was calculated by GraphPad Prism v3.03 (GraphPad Software).

Assay [2] deals with T2, PDE4Bcat (Homo sapiens, UniProt Q07343).
T2 construct: catalytic domain (indicated as “cat,” hereinafter), PDE4Bcat; made in house; host or cells: Sf9 insect cells (baculovirus, Bac-to-Bac)
As to the kind of experiment: Inhibition of phosphodiesterase activity, [3H]-cAMP hydrolysis, recombinant PDE4Bcat. Format: biochemical. As to conditions: cAMP 2 μmol/L, read-out: IC50(μmol/L) PDE4. The protocol:
as §1, §2

In assay [3] the test system is histamine-induced bronchoconstriction. As to the kind of experiment: Histamine-induced bronchoconstriction in guinea pigs. As to conditions: Cavia porcellus, iv, 0.5 min, 30 seconds after administration, histamine 12.5 μg/kg i.v.; for inhibition in vivo at 1 mg/kg: test compound 1 mg/kg i.v.; for inhibition in vivo at 0.1 mg/kg: values in brackets: test compound 0.1 mg/kg, i.v. Format: in vivo, guinea pig. The protocol: Guinea pigs were anesthetized with pentobarbital (30 mg/kg, i.p.). A cannula for IV administeration, a cannula for collecting blood and measurement of blood pressure and a trachea cannula were inserted into the left exterior jugular vein, right interior carotid artery and trachea, respectively. The animals were placed under artificial respiration at 60 times/min and 10 mL/kg/stroke. The airflow through the branch of the tracheal cannula was measured by a bronchospasm transducer (Ugo-Basile) and recorded on a computer via Power Lab (ADInstruments Japan). The animals were immobilized with gallamine (10 mg/kg, i.v.), then administered histamine at 10-minute intervals (12.5 μg/kg, i.v.). […] To examine the inhibitory activity of test compound, the histamine-induced bronchoconstriction was measured after 30 seconds of drug administration. The bronchoconstriction was recorded as the change of the airflow: The results were shown by percentages of the maximum histamine-induced bronchoconstriction. Each test compound was prepared as a 10 mg/mL solution in DMSO. Gallamine was prepared as a 10 mg/mL solution in physiological saline. Histamine was prepared as a 1 mg/mL solution in physiological saline, which was diluted with physiological saline to 62.5 μg/mL for use.

T1 sequence (Q14432 674-1093 limits assumed): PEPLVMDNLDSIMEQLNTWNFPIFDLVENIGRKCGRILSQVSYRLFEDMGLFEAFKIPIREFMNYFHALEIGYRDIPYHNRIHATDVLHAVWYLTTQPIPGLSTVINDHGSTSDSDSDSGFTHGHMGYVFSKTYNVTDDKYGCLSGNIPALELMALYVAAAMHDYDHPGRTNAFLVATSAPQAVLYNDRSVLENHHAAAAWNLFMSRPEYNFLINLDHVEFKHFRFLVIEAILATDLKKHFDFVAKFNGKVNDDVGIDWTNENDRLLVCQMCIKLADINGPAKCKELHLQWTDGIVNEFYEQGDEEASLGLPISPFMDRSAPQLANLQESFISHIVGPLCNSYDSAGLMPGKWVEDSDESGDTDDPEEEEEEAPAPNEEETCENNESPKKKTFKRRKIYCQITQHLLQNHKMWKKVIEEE
T2 sequence (Q07343 330-659 limits assumed): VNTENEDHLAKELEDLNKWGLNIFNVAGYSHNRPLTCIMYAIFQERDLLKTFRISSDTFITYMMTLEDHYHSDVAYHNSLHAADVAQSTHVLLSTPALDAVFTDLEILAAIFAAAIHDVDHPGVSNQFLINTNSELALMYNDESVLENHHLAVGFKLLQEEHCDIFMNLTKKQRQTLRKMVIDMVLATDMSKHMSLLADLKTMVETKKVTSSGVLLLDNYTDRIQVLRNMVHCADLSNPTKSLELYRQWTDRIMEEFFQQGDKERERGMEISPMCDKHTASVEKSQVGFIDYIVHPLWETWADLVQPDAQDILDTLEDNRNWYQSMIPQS

Regarding `CCc1nn2cc(Cl)cc(C3=NNC(=O)CC3C)c2c1Cl` (stereo not drawn) [Example 203], the IC50 was greater than 10 µmol/L in assay [1] and 0.1 to 1 µmol/L in assay [2]. The compound further yielded an inhibition in vivo at 1 mg/kg in assay [3] of 70 to 80%.
Take `CCOC(=O)c1ccc(C2=NNC(=O)CC2C)c2cc(CC)nn12` (stereo not drawn) [Example 204]: the IC50 in assay [1] and in assay [2] was 1 to 10 µmol/L in each case.
Regarding `COc1ccc(C2=NNC(=O)CC2)c2cc(C(F)(F)F)nn12` [Example 209, 6-(7-methoxy-2-trifluoromethyl-pyrazolo[1,5-a]pyridine-4-yl)-4,5-dihydro-3-(2H)-pyridazinone], the IC50 in assay [1] was greater than 10 µmol/L; in assay [2], 0.1 to 1 µmol/L. In assay [3], the inhibition in vivo at 0.1 mg/kg is 80 to 90%.
For `CCC1CC(=O)NN=C1c1ccc(OC)n2nc(C(F)(F)F)cc12` (stereo not drawn) [Example 212], the figures for the IC50 in assay [1] and in assay [2] were greater than 10 µmol/L and less than 1 µmol/L, respectively.
With `CCc1nn2c(OC)ccc(C3=NNC(=O)CC3C)c2c1Cl` (stereo not drawn) [Example 213], the IC50 in assay [1] was greater than 10 µmol/L; in assay [2], 0.1 to 1 µmol/L. Moreover, in assay [3], the inhibition in vivo at 1 mg/kg fell in the range of 70 to 80%.
For the compound `COc1ccc(C2=NNC(=O)CC2C)c2ccnn12` (stereo not drawn) [Example 214], the values for the IC50 in assay [1] and in assay [2] were less than 1 µmol/L and 1 to 10 µmol/L, respectively. Moreover, the inhibition in vivo at 0.1 mg/kg in assay [3] was 80 to 90%.
In the case of `COc1ccc(C2=NNC(=O)CC2C)c2cc(C)nn12` (stereo not drawn) [Example 215], the IC50 in assay [1] lay within 1 to 10 µmol/L; in assay [2], 0.1 to 1 µmol/L. In assay [3], this compound yielded an inhibition in vivo at 0.1 mg/kg of 80 to 90%.
In the same order, the values of `CCCc1cc2c(C3=NNC(=O)CC3C)ccc(OC)n2n1` (stereo not drawn) [Example 217] are 1 to 10 µmol/L, 0.1 to 1 µmol/L and no less than 90%.
In the same order, the values of `COc1ccc(C2=NNC(=O)CC2C)c2cc(C3CC3)nn12` (stereo not drawn) [Example 218] are 1 to 10 µmol/L, 0.1 to 1 µmol/L and no less than 90%.
`COc1ccc(C2=NNC(=O)CC2C)c2cc(SC)nn12` (stereo not drawn) [Example 219]: the IC50 in assay [2] lay within 0.1 to 1 µmol/L. The inhibition in vivo at 0.1 mg/kg in assay [3] is no less than 90%.
For `COCc1cc2c(C3=NNC(=O)CC3C)ccc(OC)n2n1` (stereo not drawn) [Example 220], the figures for the IC50 in assay [1] and in assay [2] were 1 to 10 µmol/L and 0.1 to 1 µmol/L, respectively. The compound also yielded an inhibition in vivo at 0.1 mg/kg in assay [3] of no less than 90%.
In the case of `COc1ccc(C2=NNC(=O)CC2C)c2cc(CO)nn12` (stereo not drawn) [Example 221], the IC50 in assay [1] and in assay [2] was 1 to 10 µmol/L in each case.
As to `COc1ccc(C2=NNC(=O)CC2C)c2cc(C(F)F)nn12` (stereo not drawn) [Example 222], the IC50 was 1 to 10 µmol/L in assay [1] and less than 1 µmol/L in assay [2]. Further, the inhibition in vivo at 0.1 mg/kg in assay [3] lay within 70 to 80%.
For `CCc1cc2c(C3=NNC(=O)CC3C)ccc(SC)n2n1` (stereo not drawn) [Example 223] the same measures were 1 to 10 µmol/L, 0.1 to 1 µmol/L and no less than 90%.
Regarding `CCc1cc2c(C3=NNC(=O)CC3C)ccc(N(C)C)n2n1` (stereo not drawn) [Example 224], the results for the IC50 in assay [1] and in assay [2] were 1 to 10 µmol/L and 0.1 to 1 µmol/L, respectively.
For `CCc1cc2c(C3=NNC(=O)CC3C)ccc(NC)n2n1` (stereo not drawn) [Example 225], the figures for the IC50 in assay [1] and in assay [2] were 1 to 10 µmol/L and less than 1 µmol/L, respectively. Moreover, the inhibition in vivo at 0.1 mg/kg in assay [3] was 80 to 90%.
With `CCc1cc2c(C3=NNC(=O)CC3C)ccc(N3CCOCC3)n2n1` (stereo not drawn) [Example 226], the IC50 was 1 to 10 µmol/L in assay [1] and greater than 10 µmol/L in assay [2].
In the same order, the values of `CCc1cc2c(C3=NNC(=O)CC3C)ccc(NC(C)=O)n2n1` (stereo not drawn) [Example 228] are 1 to 10 µmol/L and greater than 10 µmol/L.
In the case of `CCc1cc2c(C3=NNC(=O)CC3C)ccc(-c3ccccc3)n2n1` (stereo not drawn) [Example 229], the IC50 in assay [1] and in assay [2] was 1 to 10 µmol/L throughout.
Compound `CCc1cc2c(C3=NNC(=O)CC3C)ccc(C(C)=O)n2n1` (stereo not drawn) [Example 235, 6-(7-acetyl-2-ethyl-pyrazolo[1,5-a]pyridine-4-yl)-4,5-dihydro-5-methyl-3-(2H)-pyridazinone] yielded an inhibition in vivo at 0.1 mg/kg in assay [3] of no less than 90%.
On to `COc1ccc(C2=NNC(=O)CC2C)c2cc(CF)nn12` (stereo not drawn) [Example 236, 6-(2-fluoromethyl-7-methoxy-pyrazolo[1,5-a]pyridine-4-yl)-4,5-dihydro-5-methyl-3-(2H)-pyridazinone], for which the figures for the IC50 in assay [1] and in assay [2] were 1 to 10 µmol/L and 0.1 to 1 µmol/L, respectively.
For the compound `COc1ccc(C2=NNC(=O)CC2C)c2cc(C(C)O)nn12` (stereo not drawn) [Example 238, 6-[2-(1-hydroxyethyl)-7-methoxy-pyrazolo[1,5-a]pyridine-4-yl]-4,5-dihydro-5-methyl-3-(2H)-pyridazinone], the values for the IC50 in assay [1] and in assay [2] were 1 to 10 µmol/L and less than 1 µmol/L, respectively.
With `C=Cc1cc2c(C3=NNC(=O)CC3C)ccc(OC)n2n1` (stereo not drawn) [Example 239, 6-(7-methoxy-2-vinyl-pyrazolo[1,5-a]pyridine-4-yl)-4,5-dihydro-5-methyl-3-(2H)-pyridazinone], the inhibition in vivo at 0.1 mg/kg in assay [3] was no less than 90%.
With `COc1ccc(C2=NNC(=O)CC2C)c2cc(C(C)F)nn12` (stereo not drawn) [Example 240, 6-[2-(1-fluoroethyl)-7-methoxy-pyrazolo[1,5-a]pyridine-4-yl]-4,5-dihydro-5-methyl-3-(2H)-pyridazinone], the IC50 in assay [1] was 1 to 10 µmol/L; in assay [2], less than 1 µmol/L. Moreover, the inhibition in vivo at 0.1 mg/kg in assay [3] was no less than 90%.
Regarding `CCOc1ccc(C2=NNC(=O)CC2C)c2cc(CC)nn12` (stereo not drawn) [Example 244, 6-(7-ethoxy-2-ethyl-pyrazolo[1,5-a]pyridine-4-yl)-4,5-dihydro-5-methyl-3-(2H)-pyridazinone], the IC50 in assay [1] and in assay [2] was 1 to 10 µmol/L in each case.
In the case of `CCc1cc2c(C3=NNC(=O)CC3C)ccc(S(C)(=O)=O)n2n1` (stereo not drawn) [Example 251, 6-(2-ethyl-7-methylsulfonyl-pyrazolo[1,5-a]pyridine-4-yl)-4,5-dihydro-5-methyl-3-(2H)-pyridazinone], the IC50 in assay [1] and in assay [2] was 1 to 10 µmol/L throughout.
As to `CCc1nn2c(S(C)(=O)=O)ccc(C3=NNC(=O)CC3C)c2c1O` (stereo not drawn) [Example 252], the IC50 in assay [1] and in assay [2] was 1 to 10 µmol/L throughout.
For `COc1ccc(-c2ccc(=O)n(Cc3ccccn3)n2)c2cc(C(C)C)nn12` [Example 274], the figures for the IC50 in assay [1] and in assay [2] were greater than 10 µmol/L and 0.1 to 1 µmol/L, respectively.
For `COc1ccc(-c2ccc(=O)n(Cc3ccncc3)n2)c2cc(C(C)C)nn12` [Example 275] the same measures were greater than 10 µmol/L and 1 to 10 µmol/L.
In the case of `COc1ccc(-c2n[nH]c(=O)cc2C)c2c(F)c(C(C)C)nn12` [Example 279, 6-(3-fluoro-7-methoxy-2-isopropyl-pyrazolo[1,5-a]pyridine-4-yl)-5-methyl-3-(2H)-pyridazinone], the IC50 in assay [1] was greater than 10 µmol/L; in assay [2] it was 0.1 to 1 µmol/L.
`CCc1cc2c(C3=NN(Cc4cccnc4)C(=O)CC3C)cc(F)cn2n1` (stereo not drawn) [Example 287, 6-(2-ethyl-6-fluoro-pyrazolo[1,5-a]pyridine-4-yl)-4,5-dihydro-5-methyl-2-(pyridine-3-ylmethyl)-3-(2H)-pyridazinone]: the IC50 was greater than 10 µmol/L in assay [1] and 1 to 10 µmol/L in assay [2].
For `COc1ccc(-c2nn(C)c(=O)cc2C)c2cc(C(C)C)nn12` [Example 297] the same measures were greater than 10 µmol/L and less than 1 µmol/L.
For `COc1ccc(-c2cc(C)c(=O)n(Cc3cccnc3)n2)c2cc(C(C)C)nn12` [Example 299] the same measures were greater than 10 µmol/L and less than 1 µmol/L.
For the compound `COc1ccc(-c2n[nH]c(=O)cc2C)c2cc(C(F)(F)F)nn12` [Example 303], the IC50 is greater than 10 µmol/L in assay [1] and 1 to 10 µmol/L in assay [2].
